Data as given in patent EP0162545A2, “Enhanced bioconversion processes” (BETZ EUROPE, INC., priority 1984, dated 1985).

Columns and labels:
Klebsiella [1] = type: cell-based
Protocol: (§1) Experiments to look at the above conclusions in depth were performed. In these experiments, cultures of Klebsiella were challenged with various concentrations of BNS and the effects on C02 evolution from glucose, viability, TOC (Total Organic Carbon), TIC (Total Inorganic Carbon) production, removal, and DO (Dissolved Oxygen) removal were determined. Concentrations of BNS from 0.05 to 100 µg/mL were used. […] CO2 evolution decreased after 5 gg/mL. […] The viability dropped off after that with 99% inhibition at concentrations somewhere between 10 - 20 µg/mL. Organic carbon removal gave the most puzzling pattern. […] CO2 was produced, however, as reflected by the C02 blowoff experiments and the TIC data. The organic carbon being oxidized (removed) must have been cancelled out by an organic carbon addition caused by limited bacterial lysis. This phenomenon was investigated again. […] It appeared that 5 ppm BNS would be the maximum concentration that could be used for the desired effect, with the majority of favorable results occurring in the 0.05 - 2 ppm range.
At 0.05 µg/mL level, TOC removal was equivalent to the untreated control. When BNS concentrations of 0.5 µg/mL were used, TOC removal ceased and in the second series of experiments, TOC levels increased sharply at 0.5 - 2 µg/mL concentrations of BNS. Similar results were obtained when BNS was used to treat bacteria growing in the glucose salts medium. No increases in TOC removal were seen. The TOC concentration increased rapidly at BNS concentration of 0.5 - 2 ppm only to fall back to control levels at 5 ppm. The cells then added TOC to the medium again from 5 - 1000 µg/mL concentrations of BNS. […]
The experiments coordinating the measurements of C02 evolution, TOC reduction, viable count, and dissolved oxygen (DO) reduction were performed as follows: C02 evolution by Klebsiella was measured as described previously using a narrowed set of BNS concentrations. […] These cells were used to inoculate 19 mL quantities of fresh nutrient broth (1 mL inoculum) in baffled shake flasks. […]

Klebsiella [2] = assay: Total organic carbon removal in nutrient broth shake flasks; type: cell-based; conditions: for % Org. Carbon Removal / Tot. Inorg. Carbon / Tot. Org. Carbon / Total Carbon: 5 Hours
Protocol: as §1
The experiments coordinating the measurements of C02 evolution, TOC reduction, viable count, and dissolved oxygen (DO) reduction were performed as follows: C02 evolution by Klebsiella was measured as described previously using a narrowed set of BNS concentrations. At the same time, Klebsiella cells grown overnight in nutrient broth were standardized into an inoculum of 250 Klett units. These cells were used to inoculate 19 mL quantities of fresh nutrient broth (1 mL inoculum) in baffled shake flasks. These shake flasks were placed into water bath shakers at 37°C and allowed to shake for 5 hours. Concentrations of BNS equivalent to the C02 blowoff experiment were added to the flasks at the beginning of the experiment. Controls containing no BNS were included for comparisons. Total organic carbon measurements were taken after 5 hours incubation. Viable counts were done at 1 hour, 3 hours, and 5 hours. A parallel experiment was performed using the same setup except that after BNS additions, the flasks were shaken for 30 minutes and then held stationary. DO measurements were taken at 5 hours incubation with the use of a YSI Model 54A oxygen meter.

For O=[N+]([O-])C(Br)=Cc1ccccc1 [BNS, beta-bromo-beta-nitrostyrene], the “concentration for 99% inhibition of viability” value (Klebsiella [1]) was 10000 to 20000 ng/mL, the “concentrations at which cells retained viability equal to the control level” value (Klebsiella [1]) was “up to 2 µg/mL” and the “concentrations of significant toxicity” value (Klebsiella [1]) was 5000 to 10000 ng/mL. The “% Org. Carbon Removal” value (Klebsiella [2]; BNS 0.05 µg/mL) was 37%, the “Tot. Inorg. Carbon” value (Klebsiella [2]; BNS 0.05 µg/mL) was 145 µg/mL and the “Tot. Org. Carbon” value (Klebsiella [2]; BNS 0.05 µg/mL) was 2,205 µg/mL. For the same compound, the “Total Carbon” value (Klebsiella [2]; BNS 0.05 µg/mL) was 2,350 µg/mL, the “% Org. Carbon Removal” value (Klebsiella [2]; BNS 0.1 µg/mL) was “+9%” and the “Tot. Inorg. Carbon” value (Klebsiella [2]; BNS 0.1 µg/mL) was 155 µg/mL. For the same compound, the “Tot. Org. Carbon” value (Klebsiella [2]; BNS 0.1 µg/mL) was 3,845 µg/mL, the “Total Carbon” value (Klebsiella [2]; BNS 0.1 µg/mL) was 4,000 µg/mL and the “% Org. Carbon Removal” value (Klebsiella [2]; BNS 0.5 µg/mL) was 1%. For the same compound, the “Tot. Inorg. Carbon” value (Klebsiella [2]; BNS 0.5 µg/mL) was 145 µg/mL, the “Tot. Org. Carbon” value (Klebsiella [2]; BNS 0.5 µg/mL) was 3,455 µg/mL and the “Total Carbon” value (Klebsiella [2]; BNS 0.5 µg/mL) was 3,600 µg/mL. For the same compound, the “% Org. Carbon Removal” value (Klebsiella [2]; BNS 1.0 µg/mL) was 6%, the “Tot. Inorg. Carbon” value (Klebsiella [2]; BNS 1.0 µg/mL) was 120 µg/mL and the “Tot. Org. Carbon” value (Klebsiella [2]; BNS 1.0 µg/mL) was 3,280 µg/mL. For the same compound, the “Total Carbon” value (Klebsiella [2]; BNS 1.0 µg/mL) was 3,400 µg/mL, the “% Org. Carbon Removal” value (Klebsiella [2]; BNS 2 µg/mL) was “+16%” and the “Tot. Inorg. Carbon” value (Klebsiella [2]; BNS 2 µg/mL) was 96 µg/mL. The “Tot. Org. Carbon” value (Klebsiella [2]; BNS 2 µg/mL) was 4,054 µg/mL, the “Total Carbon” value (Klebsiella [2]; BNS 2 µg/mL) was 4,150 µg/mL and the “% Org. Carbon Removal” value (Klebsiella [2]; BNS 5 µg/mL) was “+35%”. For the same compound, the “Tot. Inorg. Carbon” value (Klebsiella [2]; BNS 5 µg/mL) was 63 µg/mL, the “Tot. Org. Carbon” value (Klebsiella [2]; BNS 5 µg/mL) was 4,737 µg/mL and the “Total Carbon” value (Klebsiella [2]; BNS 5 µg/mL) was 4,800 µg/mL. For the same compound, the “% Org. Carbon Removal” value (Klebsiella [2]; BNS 10 µg/mL) was “+11%”, the “Tot. Inorg. Carbon” value (Klebsiella [2]; BNS 10 µg/mL) was 12 µg/mL and the “Tot. Org. Carbon” value (Klebsiella [2]; BNS 10 µg/mL) was 3,888 µg/mL. The “Total Carbon” value (Klebsiella [2]; BNS 10 µg/mL) was 3,900 µg/mL, the “% Org. Carbon Removal” value (Klebsiella [2]; BNS 20 µg/mL) was “+19%” and the “Tot. Inorg. Carbon” value (Klebsiella [2]; BNS 20 µg/mL) was 9 µg/mL. For the same compound, the “Tot. Org. Carbon” value (Klebsiella [2]; BNS 20 µg/mL) was 4,191 µg/mL, the “Total Carbon” value (Klebsiella [2]; BNS 20 µg/mL) was 4,200 µg/mL and the “% Org. Carbon Removal” value (Klebsiella [2]; BNS 50 µg/mL) was “+31%”. For the same compound, the “Tot. Inorg. Carbon” value (Klebsiella [2]; BNS 50 µg/mL) was 7 µg/mL, the “Tot. Org. Carbon” value (Klebsiella [2]; BNS 50 µg/mL) was 4,593 µg/mL and the “Total Carbon” value (Klebsiella [2]; BNS 50 µg/mL) was 4,600 µg/mL. For the same compound, the “% Org. Carbon Removal” value (Klebsiella [2]; BNS 100 µg/mL) was “+102%”, the “Tot. Inorg. Carbon” value (Klebsiella [2]; BNS 100 µg/mL) was 7 µg/mL and the “Tot. Org. Carbon” value (Klebsiella [2]; BNS 100 µg/mL) was 7,093 µg/mL. For the same compound, the “Total Carbon” value (Klebsiella [2]; BNS 100 µg/mL) was 7,100 µg/mL and the “concentrations resulting in increases in TOC” value (Klebsiella [2]; nutrient broth, 5 hours) was ≥ 2 µg/mL.
